This is an account of results in patent US7368421B2, “Use of dipeptidyl peptidase IV inhibitors in the treatment of multiple sclerosis” (Probiodrug AG, priority 2001, dated 2008).

The test system of one test is EAE. Conditions: chronic treatment, female Lewis rats; cited from earlier work.
For a further test, the target named is T1, porcine DP II (Sus scrofa, UniProt A0A5G2QK18).
T1 construct: The enzyme used was purified from porcine kidney; from tissue; host or cells: porcine kidney
Briefly: Inhibition of DP IV-like enzymes, dipeptidyl peptidase II. The test is classed as biochemical. How it is done: DP II (3.4.14.2) releases N-terminal dipeptides from oligopeptides if the N-terminus is not protonated (McDonald, J. K., Ellis, S. & Reilly, T. J., 1966, J. Biol. Chem., 241, 1494-1501). Pro and Ala in P1-position are preferred residues. The enzyme activity is described as DP IV-like activity, but DP II has an acidic pH-optimum. The enzyme used was purified from porcine kidney.
100 μl glutaminylpyrrolidine or glutaminylthazolidine in an concentration range of 1*10^−4 M-5*10^−8M were admixed with 100 μl μl buffer solution (40 mM HEPES, pH7.6, 0.015% Brij, 1 mM DTT), 50 μl lysylalanylaminomethylcoumarine solution (5 mM) and 20 μl porcine DP II (250fold diluted in buffer solution). Fluorescence measurement was performed at 30° C. and λexiatation=380 nm, λemission=465 nm for 25 min using a plate reader (HTS7000plus, Applied Biosystems, Weiterstadt, Germany).

The target of test [1] is T2, Dipeptidyl Peptidase I (DP I, Cathepsin C) (Rattus norvegicus, UniProt P80067).
T2 construct: purchased Qiagen GmbH, Hilden, Germany
T2 sequence (P80067 25-462): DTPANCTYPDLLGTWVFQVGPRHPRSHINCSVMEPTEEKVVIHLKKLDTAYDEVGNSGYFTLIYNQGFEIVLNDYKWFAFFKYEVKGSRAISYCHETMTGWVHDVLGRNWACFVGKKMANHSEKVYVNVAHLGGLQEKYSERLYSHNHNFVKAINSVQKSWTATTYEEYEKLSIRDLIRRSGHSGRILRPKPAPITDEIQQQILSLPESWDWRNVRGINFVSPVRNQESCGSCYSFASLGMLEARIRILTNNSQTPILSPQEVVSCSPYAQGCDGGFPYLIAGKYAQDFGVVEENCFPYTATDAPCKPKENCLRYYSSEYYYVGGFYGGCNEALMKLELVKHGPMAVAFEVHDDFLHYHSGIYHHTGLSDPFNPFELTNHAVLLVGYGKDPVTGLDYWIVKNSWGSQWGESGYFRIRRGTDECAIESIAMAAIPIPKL
As to the kind of experiment: Cross reacting enzymes: dipeptidyl peptidase I. The test is classed as biochemical. As to conditions: concentration range 1*10^−5M-1*10^−7M. How it is done:
DP I or cathepsin C is a lysosomal cysteine protease which cleaves off dipeptides from the N-terminus of their substrates (Gutman, H. R. & Fruton, J. S., 1948, J. Biol. Chem., 174, 851-858). It is classified as a cysteine protease. The enzyme used was purchased from Qiagen (Qiagen GmbH, Hilden, Germany). In order to get a fully active enzyme, the enzyme was diluted 1000 fold in MES buffer pH5,6 (40 mM MES, 4 mM DTT, 4 mM KCl, 2 mM EDTA, 0.015% Brij) and pre-incubated for 30 min at 30° C.
50 μl glutaminylpyrrolidine or glutaminylthazolidine in a concentration range of 1*10^−5M-1*10^−7M were admixed with 110 μl buffer-enzyme-mixture. The assay mixture was pre-incubated at 30° C. for 15 min. After pre-incubation, 100 μl, histidylseryl-β-nitroaniline (2*10^−5M) was added and measurement of yellow color development due to β-nitroaniline release was performed at 30° C. and […] for 10 min., using a plate reader (HTS7000 plus, Applied Biosystems, Weiterstadt, Germany).
The IC 50-values were calculated using Graphit 4.0.15 (Erithacus Software, Ltd., UK).

In another test the target is T3, plasma DP IV activity (Rattus norvegicus, UniProt P14740).
T3 construct: from tissue; host or cells: plasma of Wistar rats
Briefly: DP IV inhibiting activity after intravasal and oral administration to Wistar rats. The test is classed as in vivo. As to conditions: 100 mg/kg; for in vivo DP IV-inhibition at tmax, i.v.: intra-vasal (intra-arterial); for in vivo DP IV-inhibition at tmax, p.o.: oral. How it is done:
Male Wistar rats (Shoe: Wist(Sho)) with a body weight ranging between 250 and 350 g were purchased from Tierzucht Schönwalde (Schönwalde, Germany).
Animals were single-caged under conventional conditions with controlled temperature (22±2° C.) on a 12/12 hours light/dark cycle (light on at 06:00 AM). Standard pelleted chow (ssniff® Soest, Germany) and tap water acidified with HCl were allowed ad libitum.
After ≧one week of adaptation at the housing conditions, catheters were implanted into the carotid artery of Wistar rats under general anaesthesia (i.p. injection of 0.25 ml/kg b.w. Rompun® [2%], BayerVital, Germany and 0.5 ml/kg b.w. Ketamin 10, Atarost GmbH & Co., Twistringen, Germany). The animals were allowed to recover for one week. The catheters were flushed with heparin-saline (100 IU/ml) three times per week. In case of catheter dysfunction, a second catheter was inserted into the contra-lateral carotid artery of the respective rat. After one week of recovery from surgery, this animal was reintegrated into the study. In case of dysfunction of the second catheter, the animal was withdrawn from the study. A new animal was recruited and the experiments were continued in the planned sequence, beginning at least 7 days after catheter implantation.
After overnight fasting, 100 μl samples of heparinised arterial blood were collected at −30, −5, and 0 min. […] In the case of oral administration, an additional volume of 1 ml saline was injected into the arterial catheter. In the case of intra-arterial administration, the catheter was immediately flushed with 30 μl saline and an additional 1 ml of saline was given orally via the feeding tube.
All blood samples were collected into ice cooled Eppendorf tubes (Eppendorf-Netheler-Hinz, Hamburg, Germany) filled with 10 μl 1 M sodium citrate buffer (pH 3.0) for plasma DP IV activity measurement. Eppendorf tubes were centrifuged immediately (12000 rpm for 2 min, Hettich Zentrifuge EBA 12, Tuttlingen; Germany): The plasma fractions were stored on ice until analysis or were frozen at −20° C. until analysis. All plasma samples were labelled with the following data: • Code number • Animal Number • Date of sampling • Time of sampling Analytical Methods
The assay mixture for determination of plasma DP IV activity consisted of 80 μl reagent and 20 μl plasma sample. […] The DP IV activity was expressed in mU/ml.
All parameters were analysed in a descriptive manner including mean and SD.

The test system of test [2] is experimental autoimmune encephalomyelitis (EAE). Briefly: EAE experiment 1: i.p. treatment day 1-15, female Lewis rats. The test is classed as in vivo. How it is done: For the first experiment female inbred Lewis rats (n=50) with a mean body weight of 190±6 g, were obtained from Charles River (Bad Sulzfeld, Germany). Animals were randomly assigned to the different experimental conditions. Rats were housed four per cage under a 12:12 h light: dark cycle (lights off at 18:00 h) and at constant temperature (24° C.) in a specific pathogen free air-conditioned colony room with food (Altromin lab chow pellets) and tap water available ad lib. The animals underwent routine cage maintenance once a week. All research and animal care procedures were approved by the government of Lower Saxony in Hannover, Germany, and performed in compliance with international animal welfare standards.
Guinea pig MBP (50 μg/rat) was emulsified in Complete Freund's adjuvant (CFA) containing heat-killed Mycobacterium tuberculosis (H37Ra; 225 μg/rat) and injected s.c. at the base of the tail in a total volume of 100 μl (12). CFA (Sigma) and heat-killed Mycobacterium tuberculosis (H37Ra) were purchased from Life Technologies, Inc. (Rockville, Md.). Clinical disease was scored on the following scale: 0.5: partial loss of tail tone; 1.0: complete tail atony; 2.0: hind limb weakness; 2.5: hind limb paralysis of one leg; 3.0: hind limb paralysis of both legs; 3.5: limb paralysis of three legs; 4.0: quadriplegia and moribund status; 5.0: death due to EAE. Experiments were terminated on day 15 post immunization when most of the animals were about 48 h after maximal clinical score. The incidence of adjuvant-induced arthritis was remarkably low (n=0 in the 1st experiment) using the base of the tail as an immunization site. […]
Comparison over time between the clinical course of EAE of the different treatment conditions was conducted using a two factorial analysis of variance (ANOVA) for repeated measures. Sums of clinical scores of EAE, onset and peak of disease were calculated on the basis of the clinical scores per day and analyzed using a one factorial ANOVA and post hoc Fisher's PLSD tests, if appropriate. […]

Test [3] shares this test system. As to the kind of experiment: EAE experiment 2: i.p. treatment day 5-15, male Lewis rats. As to conditions: for Average score / Maximal score / Onset of disease (1st day of score > 1) / Sum of scores: days 5-15 p.i. On the set-up: key to Average score / Maximal score: 0.5 = partial tail tone loss … 4 = quadriplegia, 5 = death; Onset of disease (1st day of score > 1): unit not given here. The test is classed as in vivo. How it is done:
For the second experiment, male inbred Lewis rats (n=50) with a mean body weight of 230±12 g, were obtained from Charles River (Bad Sulzfeld, Germany). Animals were randomly assigned to the different experimental conditions. Rats were housed four per cage under a 12:12 h light: dark cycle (lights off at 18:00 h) and at constant temperature (24° C.) in a specific pathogen free air-conditioned colony room with food (Altromin lab chow pellets) and tap water available ad lib. The animals underwent routine cage maintenance once a week.
Guinea pig MBP (50 μg/rat) was emulsified in Complete Freund's adjuvant (CFA) containing heat-killed Mycobacterium tuberculosis (H37Ra; 225 μg/rat) and injected s.c. at the base of the tail in a total volume of 100 μl (12). CFA (Sigma) and heat-killed Mycobacterium tuberculosis (H37Ra) were purchased from Life Technologies, Inc. (Rockville, Md.). Clinical disease was scored on the following scale: 0.5: partial loss of tail tone; 1.0: complete tail atony; 2.0: hind limb weakness; 2.5: hind limb paralysis of one leg; 3.0: hind limb paralysis of both legs; 3.5: limb paralysis of three legs; 4.0: quadriplegia and moribund status; 5.0: death due to EAE. Experiments were terminated on day 21 post immunization (p.i.).
The incidence of adjuvant-induced arthritis was remarkably low (n=0 in the 2nd experiment) using the base of the tail as an immunization site. In the second experiment no signs of arthritis were found. […] This time, these animals remained in the analysis, because this finding is probably due to the treatment. In this experiment a phenomenon called “disease dissociation” was observed. In several animals there was a clear tonus of the tail associated with a clear weakness of the hind limbs. The animals were scored maximal, i.e. 2.
Comparison over time between the clinical course of EAE of the different treatment conditions was conducted using a two factorial analysis of variance (ANOVA) for repeated measures. Sums of clinical scores of EAE, onset and peak of disease were calculated on the basis of the clinical scores per day and analyzed using a one factorial ANOVA and post hoc Fisher's PLSD tests, if appropriate. All data are presented as means±SEM.

Entries after “also recorded” stand apart in the source; their conditions may differ. Structures can show the parent of a compound that is named as a salt. Marks after values point to notes of the source that are not given here. Square brackets hold non-standard residues; d marks the D form. Peptide text beside a SMILES is read from it. pY = N[C@@H](Cc1ccc(OP(=O)(O)O)cc1)C(=O)O

T3 sequence (P14740 37-767 limits assumed): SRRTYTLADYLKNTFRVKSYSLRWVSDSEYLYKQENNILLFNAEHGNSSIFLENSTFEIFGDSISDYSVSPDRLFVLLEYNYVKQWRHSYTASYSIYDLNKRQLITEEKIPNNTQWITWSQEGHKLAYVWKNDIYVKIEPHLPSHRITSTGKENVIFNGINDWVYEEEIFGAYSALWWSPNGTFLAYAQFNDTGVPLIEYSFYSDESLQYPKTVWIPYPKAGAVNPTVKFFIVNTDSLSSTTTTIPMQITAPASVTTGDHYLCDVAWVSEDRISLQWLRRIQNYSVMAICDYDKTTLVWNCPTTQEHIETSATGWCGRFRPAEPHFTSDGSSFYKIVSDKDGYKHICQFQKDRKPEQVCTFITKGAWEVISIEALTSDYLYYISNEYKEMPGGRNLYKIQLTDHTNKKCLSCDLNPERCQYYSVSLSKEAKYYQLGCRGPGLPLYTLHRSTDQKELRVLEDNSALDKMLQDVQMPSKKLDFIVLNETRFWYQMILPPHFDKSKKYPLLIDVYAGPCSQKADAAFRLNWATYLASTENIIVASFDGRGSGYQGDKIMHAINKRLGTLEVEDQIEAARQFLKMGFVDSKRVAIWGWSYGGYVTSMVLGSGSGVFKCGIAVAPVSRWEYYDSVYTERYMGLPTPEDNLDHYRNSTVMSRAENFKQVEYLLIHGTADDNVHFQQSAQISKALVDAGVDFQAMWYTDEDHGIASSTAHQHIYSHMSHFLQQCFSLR
T1 sequence (A0A5G2QK18 28-502): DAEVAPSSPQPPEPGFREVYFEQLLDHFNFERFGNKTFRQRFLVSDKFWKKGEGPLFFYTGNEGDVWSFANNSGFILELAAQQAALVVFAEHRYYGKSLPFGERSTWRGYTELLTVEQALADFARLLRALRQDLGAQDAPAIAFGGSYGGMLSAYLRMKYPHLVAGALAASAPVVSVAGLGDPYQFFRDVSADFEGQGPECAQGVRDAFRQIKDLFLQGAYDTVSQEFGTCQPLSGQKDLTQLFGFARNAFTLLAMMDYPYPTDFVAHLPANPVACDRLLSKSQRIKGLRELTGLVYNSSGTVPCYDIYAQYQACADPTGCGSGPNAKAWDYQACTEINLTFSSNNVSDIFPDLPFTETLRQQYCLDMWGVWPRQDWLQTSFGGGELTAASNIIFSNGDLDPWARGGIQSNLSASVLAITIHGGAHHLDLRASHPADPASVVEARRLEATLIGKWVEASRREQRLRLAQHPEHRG

With `CN(C)CCCN1c2ccccc2CCc2ccccc21` [Imipramine], the “severity of acute MBP-induced EAE” value with EAE was “reduce the severity”.
In the case of `NC(=O)CCC(N)C(=O)N1CCCC1` (stereo not drawn) [Gln-Pyrr, glutaminyl pyrrolidine], the “type of inhibition of porcine DP II” value at porcine DP II is reported as “non-competitive type inhibitors”. For the same compound, in test [1], the “inhibition of DP I enzyme activity” value is “no inhibition”.
For `Br.CC(C)[C@H](NC(=O)[C@H](C)N)C(=O)N1CCC[C@H]1C(=O)COC(=O)c1ccccc1` [Ala-Val-Pro-Benzoyl-methylketone, H-Ala-Val-Pro-CH2O—C(O)Ph*HBr], at plasma DP IV activity, the “in vivo DP IV-inhibition at tmax, i.v.” value came out at 97% and the “in vivo DP IV-inhibition at tmax, p.o.” value came to 76%.
Take `Br.CC(=O)OCC(=O)[C@@H]1CCCN1C(=O)[C@@H](NC(=O)[C@H](C)N)C(C)C` [Ala-Val-Pro-Acyloxymethylketone, H-Ala-Val-Pro-CH2O—C(O)CH3*HBr]: at plasma DP IV activity, the “in vivo DP IV-inhibition at tmax, i.v.” value is on record as 89% and the “in vivo DP IV-inhibition at tmax, p.o.” value is on record as 86%.
Consider `CC[C@H](C)[C@H](NC(=O)[C@@H]1CCCN1C(=O)[C@@H](N)Cc1ccc(OP(=O)(O)O)cc1)C(=O)O` [Tyr(P)-Pro-Ile] (H-[pY]-Pro-Ile-OH; N-terminus assumed), for which, at plasma DP IV activity, the “in vivo DP IV-inhibition at tmax, p.o.” value is recorded as “no inhibition”.
As for `CC[C@H](C)[C@H](N)C(=O)N1CCSC1` [isoleucyl thiazolidine fumarate], in test [2] (1 mg dosage i.p. daily from day 1, female Lewis rats, fumarate), the “effect on clinical score of EAE, days 11 and 12 p.i.” value was “significant disease-aggravating effect; also recorded: disease-aggravating effects”. Moreover, the “effect on clinical score of EAE, day 15 p.i.” value in test [2] (10 mg dose i.p. daily from day 1, female Lewis rats, fumarate) is recorded as “significantly reduced clinical score”. Further, the “shortening of the latency until onset of disease” value in test [2] (10 mg/kg i.p. daily from day 1, female Lewis rats) is “about 1 day”. Further, the “effect on clinical scores in the second peak (classical acute EAE), days 10-13” value was “aggravate the clinical scores” in test [3] (1 mg dose i.p.); “clearly improved the clinical course; also recorded: significant delaying and ameliorating effects” in test [3] (30 mg/kg i.p., fumarate). For the same compound, the Average score in test [3] (1 mg/kg i.p. daily) is reported as 0.96*; in test [3] (3 mg/kg i.p. daily), 0.8; in test [3] (10 mg/kg i.p. daily), 0.72; in test [3] (30 mg/kg i.p. daily), 0.37**. The Maximal score in test [3] (1 mg/kg i.p. daily) is listed as 2.8; in test [3] (3 mg/kg i.p. daily), 3.0; in test [3] (10 mg/kg i.p. daily) it was 2.1; in test [3] (30 mg/kg i.p. daily), 2.0*. Further, the “Onset of disease (1st day of score > 1)” value in test [3] (1 mg/kg i.p. daily) is 10.3*; in test [3] (3 mg/kg i.p. daily), 12.0; in test [3] (10 mg/kg i.p. daily), 12.1; in test [3] (30 mg/kg i.p. daily), 14.0***. Besides, the Sum of scores in test [3] (1 mg/kg i.p. daily) was 14.2*; in test [3] (3 mg/kg i.p. daily), 12.0; in test [3] (10 mg/kg i.p. daily), 10.8; in test [3] (30 mg/kg i.p. daily), 5.6**. Besides, in test [3] (3 mg and 10 mg dosages i.p.), the “effect on disease activity after initiation of treatment, days 6-9” value is reported as “induced a significant first peak of disease activity”.
